From US20050282840A1, “Methods of modulating neurotrophin-mediated activity” (PainCeptor Pharma Corporation, priority 2004, published 2005)
Like-named read-outs stand apart in the source and are kept apart here.

How the values were obtained:
p75^NTR = molecular target: T1, p75^NTR (Rattus norvegicus, UniProt P07174); test: 125I-BDNF crosslinking to p75^NTR receptors on nnr5 cells; type: binding; conditions: 0.1 nM 125I-BDNF, 2 h at 4° C., read-out: IC50 (mean±S.E.M), inhibition of 125I-BDNF crosslinking to p75^NTR
T1 construct: ^125I-BDNF crosslinking to p75^NTR receptors on nnr5 cells expressing p75^NTR; endogenous in cells; host or cells: PC12^nnr5 cells (TrkB-transfected)
T1 sequence (P07174 30-425): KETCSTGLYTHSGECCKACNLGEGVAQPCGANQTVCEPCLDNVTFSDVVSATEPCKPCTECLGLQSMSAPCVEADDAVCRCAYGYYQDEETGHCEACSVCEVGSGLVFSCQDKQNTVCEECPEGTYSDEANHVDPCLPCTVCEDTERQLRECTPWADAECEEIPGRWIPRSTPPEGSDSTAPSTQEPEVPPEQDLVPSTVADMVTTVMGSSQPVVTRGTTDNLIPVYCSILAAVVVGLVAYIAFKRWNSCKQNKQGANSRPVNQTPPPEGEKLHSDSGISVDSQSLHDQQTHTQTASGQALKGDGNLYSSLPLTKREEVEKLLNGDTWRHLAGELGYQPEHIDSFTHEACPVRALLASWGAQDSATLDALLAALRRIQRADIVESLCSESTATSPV
T1 sequence (P23560 129-247 partner): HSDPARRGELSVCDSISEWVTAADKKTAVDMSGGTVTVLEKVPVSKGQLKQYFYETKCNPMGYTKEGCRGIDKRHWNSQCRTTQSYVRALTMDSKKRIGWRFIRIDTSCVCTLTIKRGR
Procedure: Cells were incubated at 37° C. in 5% CO2. PC12 and PC12^nnr5 cells were maintained in RPMI-1640 medium supplemented with 10% fetal calf serum (FCS); cells were harvested by replacing the medium with calcium-magnesium-free balanced salt (Gey's) solution and incubating at 37° C. for 15 min. NIH-3T3 cells were grown in Dulbecco's modified Eagle medium: F12 containing 5% FCS; cells were harvested by replacing the medium with a 0.25% trypsin-0.53 mM ethylenediaminetetraacetic acid (EDTA) solution and incubating at 37° C. for 5 min.
The full-length TrkB cDNA was cloned into the CMV plasmid vector. Transient expression of TrkB in PC12^nnr5 cells was achieved by transfecting the cells with the TrkB expression vector using Lipofectamine Plus reagents (Invitrogen Canada Inc; Burlington, ON). PC12^nnr5 cells were passed through a syringe fitted with a 21-gauge needle several times to prevent clumping. In a 100 mm dish, 10×10^6 cells were plated and used for transfection the next day. […]
PC12 cells or TrkB-expressing PC12^nnr5 cells were recovered using Gey's solution, pelleted by centrifugation, and suspended in HKR (HEPES-Krebs Ringer Solution; [10 mM HEPES, 125 mM NaCl, 4.8 mM KCl, 1.3 mM CaCl2.2H2O, 1.2 mM MgSO4, 1.2 mM KH2PO4, 1 mg/mL BSA, 1 mg/mL glucose, pH 7.35]). […] Dried gels were registered to the autoradiograph and each labeled protein band was quantified by direct gamma counting. […]

p75 [1] = test: Neurotrophin-receptor crosslinking assay, 125I-NGF (Example 3); type: binding; conditions: for 125I-NGF X-linking Sample (% binding): crosslinked sample counted on gamma counter; for 125I-NGF X-linking p75 band (% binding): p75 band counted on gamma counter
Procedure: (§1) PC12 cells or TrkB-expressing PC12^nnr5 cells were recovered using Gey's solution, pelleted by centrifugation, and suspended in HKR (HEPES-Krebs Ringer Solution; [10 mM HEPES, 125 mM NaCl, 4.8 mM KCl, 1.3 mM CaCl2.2H2O, 1.2 mM MgSO4, 1.2 mM KH2PO4, 1 mg/mL BSA, 1 mg/mL glucose, pH 7.35]). In a total volume of 1 mL, 1×10^6 cells were incubated, rotating, with 0.1 nM ^125I-BDNF or ^125I-NGF and additions (Compound A or Compound B at the indicated final concentrations) for 2 h at 4° C. At the conclusion of the binding reaction, a 20 μL volume of BS^3 was added to a final concentration of 0.4 mM and incubated, rocking, for an additional 30 min at room temperature. Cells were washed twice in TBS. For analysis of ^125I-NGF crosslinking to TrkA, ^125I-NGF crosslinking to p75^NTR, and ^125I-BDNF crosslinking to p75^NTR, samples were solubilized directly in SDS sample buffer and heated for 10 min at 95° C. For analysis of ^125I-BDNF crosslinking to TrkB, samples were immunoprecipitated with a pan-Trk antibody. All samples were electrophoresed on a 6% SDS-polyacrylamide gel, dried, and autoradiographed. Dried gels were registered to the autoradiograph and each labeled protein band was quantified by direct gamma counting. Non-linear regression analysis was performed by Prism 3.0 to generate concentration-effect curves and determine IC50 values.
(§2) The neurotrophin-receptor crosslinking assay described in Example 1 was used to determine binding of compounds 65, 3, 43 and 97 to ^125I-NGF and ^125I-BDNF.
(§3) ^1The p75 band was excised from the gel and cpm were determined on a gamma counter. Values were calculated as follows: [formula]
(§4) ^2An aliquot of the total crosslinked sample in SDS-sample buffer was counted on a gamma counter. Values were calculated as follows: [formula]

p75 [2] = test: Neurotrophin-receptor crosslinking assay, 125I-BDNF (Example 3); type: binding; conditions: for 125I-BDNF X-linking Sample (% binding): crosslinked sample counted on gamma counter; for 125I-BDNF X-linking p75 band (% binding): p75 band counted on gamma counter
Procedure: as §1, §2, §3, §4

[3] = system: p75^NTR receptors (PC12 cells); test: Basic screening assay: binding of 125I-NGF to PC12 cells; conditions: for 125I-NGF Binding (% binding): Example 3 table; for NGF Activity % Maximal Binding: test compound 50 μM, 0.5 nM 125I-NGF, PC12 cells, 2 h at 4° C., specific binding as percent of control
Summary of the method: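 Inhibition of 0.5 nM 125I-NGF binding to p75NTR on PC12 cells was measured with compounds at 50 μM during 2 h rotation at 4° C. Cell-bound radioactivity from glycerol-cushion centrifugation was gamma-counted, giving NSB-corrected binding as % of control specific binding.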

[4] = molecular target: T2, p75^NTR receptors (PC12 cells) (Rattus norvegicus, UniProt P07174); test: Basic screening assay: binding of 125I-BDNF to PC12 cells; conditions: for 125I-BDNF Binding (% binding): Example 3 table; for activity at 50 µM: read-out: BDNF Activity % Maximal Binding
T2 construct: endogenous in cells; host or cells: PC12 cells
T2 sequence (P07174 30-425): T1 sequence (P07174 30-425)
T2 sequence (P23560 129-247 partner): T1 sequence (P23560 129-247 partner)
Summary of the method: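 4×10^6 PC12 cells incubated 2 h at 4° C, rotating, with 0.5 nM ^125I-BDNF (final) and compound at 50 μM, in duplicate or more. Bound ligand separated through 10% glycerol by centrifugation and counted by gamma counter; specific binding is Bmax minus NSB; inhibitors followed up for EC50.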

Compound	IC50 (p75^NTR) [µM]	125I-NGF X-linking Sample (% binding) (p75 [1])	125I-NGF X-linking p75 band (% binding) (p75 [1])	125I-BDNF X-linking Sample (% binding) (p75 [2])	125I-BDNF X-linking p75 band (% binding) (p75 [2])	125I-NGF Binding (% binding) [3]	NGF Activity % Maximal Binding ([3]; Table 1)	125I-BDNF Binding (% binding) [4]	activity at 50 µM [4] [%]	activity at 50 µM ([4]; Table 1, test compound 50 μM, 0.5 nM 125I-BDNF, PC12 cells, 2 h at 4° C., specific binding as percent of control) [%]	NGF Activity % Maximal Binding ([3]; Table 2)	NGF Activity % Maximal Binding ([3]; Table 4)	activity at 50 µM ([4]; Table 4, test compound 50 μM, 0.5 nM 125I-BDNF, PC12 cells, 2 h at 4° C., specific binding as percent of control) [%]
COc1ccc(-c2ccc(C=C3C(=O)N(c4ccc(C(=O)O)cc4)N=C3C)o2)c([N+](=O)[O-])c1 (racemic) [Compound A, 4-{4-[5-(4-Methoxy-2-nitro-phenyl)-furan-2-ylmethylene]-3-methyl-5-oxo-4,5-dihydro-pyrazol-1-yl}-benzoic acid]	15.64 ± 0.05												
Cc1cc(-c2ccc(C=C3C(=O)NC(=S)NC3=O)o2)c(C)c([N+](=O)[O-])c1 [Compound 3, 5-[5-(2,5-Dimethyl-3-nitrophenyl)furan-2-ylmethylene]-2-thioxo-dihydro-pyrimidine-4,6-dione]		* (50 < *)	* (50 < *)	XXXXX (0 < XXXXX < 10)	XXXXX (0 < XXXXX < 10)	* (50 < *)	* (50 < *)	XXXXX (0 < XXXXX < 10)	0 to 10				
O=C(O)c1cc(-c2ccc(/C=C3\NC(=O)N(c4cccc(Cl)c4)C3=O)o2)ccc1Cl [Compound 43, 2-Chloro-5-{5-[1-(3-chlorophenyl)-2,5-dioxo-imidazolidin-4-ylidenemethyl]furan-2-yl}benzoic acid]		* (50 < *)	* (50 < *)	XXX (20 < XXX < 30)	XXXXX (0 < XXXXX < 10)	* (50 < *)	* (50 < *)	XXX (20 < XXX < 30)		30 to 40			
O=C1NC(=S)NC(=O)C1=Cc1ccc(-c2ccc(C(=O)O)c(Cl)c2)o1 [Compound 65, 2-Chloro-4-[5-(4,6-dioxo-2-thioxo-tetrahydro-pyrimidin-5-ylidenemethyl)furan-2-yl]benzoic acid]		* (50 < *)	* (50 < *)	XXXXX (0 < XXXXX < 10)	XXXXX (0 < XXXXX < 10)	XXX (20 < XXX < 30)		XXXXX (0 < XXXXX < 10)	0 to 10		XXX (20 < XXX < 30)		
O=C1NC(=O)/C(=C\c2ccc(-c3ccc(Cl)c([N+](=O)[O-])c3)o2)S1 [Compound 97, 5-[5-(4-Chloro-3-nitrophenyl)furan-2-ylmethylene]-thiazolidine-2,4-dione]		* (50 < *)	* (50 < *)	* (50 < *)	XX (30 < XX < 40)	* (50 < *)		* (50 < *)				* (50 < *)	> 50
NS(=O)(=O)c1ccc(-c2ccc(/C=C3/SC(=S)N(CCC(=O)O)C3=O)o2)cc1 [Compound B]	10.56 ± 0.05												
